≈ marks a conversion by molar mass, not a printed value. Where two headings read alike, the source gives them in different places.
Legend:
[1] = system: Escherichia coli; parameters: method as in PMID 31405863, PMID 15730262; conditions: natural PMs; cited from earlier work
[2] = system: MCF 7 breast cancer cell line; assay: MTT viability assay; format: cell-based; conditions: for IC50: MTT, 48 h of treatment; for C-SI (Cancer Selectivity Index), MCF 7: ratio of IC50 of normal hTERT-RPE-1 to that of MCF 7, second value of the cell
Protocol: (§1) The HCT116 colon cancer cell line (ATCC® CCL-247™), the MCF 7 breast cancer cell line (ATCC® HTB-22™) and the hTERT RPE-1 -immortalized retinal pigment epithelial cell line (ATCC® CRL-4000™) used in this study were cultured in DMEM medium (Gibco, Paisley, UK), supplemented with 1% glutamine, 10% heat-inactivated fetal bovine serum and 100U/mL penicillin and 100 μg/mL streptomycin, as already described, and maintained at 37 °C and 5% CO2.
(§2) Cells were plated at 5 × 10^3 cells/well in 96-well plates and incubated for 24 h prior to treatment for further 48 h of different concentrations of PMs. After incubation, a sample of 20 μL of Thiazolyl Blue Tetrazolium Bromide (5 mg mL^−1) in PBS was added to each well and cultured for 2h at 37 °C in CO2 incubator. After removing the medium containing MTT and three washes with PBS, 100 μL of warm DMSO was added to each well to dissolve formazan. Samples were shaken for 10 min, at room temperature in the dark, and the absorbance was recorded at 570 nm using a microplate reader (Spark® 20M Tecan Trading AG, Switzerland). Percentage of cell viability with respect to untreated control cells (vehicle control) was calculated after subtraction of the blank. The IC50 values, that is the concentration necessary to inhibit the 50% of cell growth, was calculated using a dose-response model, obtained from sigmoidal fitting of response curves of percent inhibition versus logarithmic concentration of PMs, using Graph Pad Prism software. Each result represents the mean value of three different experiments performed in triplicate.

[3] = system: HCT116 colon cancer cell line; assay: MTT viability assay; format: cell-based; conditions: for IC50: MTT, 48 h of treatment; for C-SI (Cancer Selectivity Index), HCT116: ratio of IC50 of normal hTERT-RPE-1 to that of HCT116, first value of the cell
Protocol: as §1, §2

[4] = system: S. aureus; assay: MIC by absorbance at 600 nm after overnight challenge; format: cell-based; conditions: Staphylococcus aureus, LB medium, absorbance 600 nm
Protocol: (§3) Kill curve assays were performed to test the antimicrobial efficacy of pyrrolomycins (i.e., 1, 2, 5a, 5b, 5c, 5d), as well as that of the natural PM-C against the indicator pathogen Staphylococcus aureus ATCC 25923 and Pseudomonas aeruginosa ATCC 10145 strains. Briefly, a single colony of either S. aureus or P. aeruginosa strains was picked up and pre-cultivated (ca. 16 h) at 37 °C with shacking (160 rpm) in Luria Bertani medium (hereinafter named as LB and composed of (g L^−1): sodium chloride, 10; yeast extract, 5; tryptone, 10). The same medium was solidified by adding 15 g L^−1 of bacteriological agar when needed. Bacterial cells were then inoculated (1% v/v) in LB medium amended with increasing concentrations—ranging from 0 to 100 μM as initial concentration—of each pyrrolomycin tested, challenging the cultures for 24 h and incubating them as reported above. The actual number of viable colony forming units per milliliter of culture (CFU mL^−1) of each bacterial strain, who survived the challenge exerted by pyrrolomycins, was evaluated through the spot plate count method and compared to unchallenged cultures, as reported elsewhere. The data are reported as average values (n = 3) of CFU mL^−1 in the logarithmic (Log10) scale with standard deviation (SD). Evaluation of the MIC of PM-5c, and -5d against S. aureus and of PM-5d against P. aeruginosa was performed by incubating 1% (v/v) of an overnight bacterial suspension in LB medium in presence of increasing concentrations of the PMs. As a control, MIC of PM-C was measured. At the time of the inoculum and after overnight challenge, the absorbance of the cultures at 600 nm, which is an indirect way to measure the bacterial cell growth, was registered using a Spark™ 10 M multimode microplate reader measuring. The experiment was carried out in triplicate, being the absorbance corrected by subtracting that of the culture medium amended with the corresponding PM tested.

[5] = system: HCT116 and MCF 7 cancer cell lines; assay: MTT viability assay, statements over both cancer cell lines; format: cell-based; conditions: for IC50: MTT, 48 h challenge, group statement, read-out: IC50, regardless of the cancer cell line (HCT116, MCF 7); for C-SI, mean value among the two cancer cell lines: mean of HCT116 and MCF 7 C-SI
Protocol: as §1, §2

[6] = system: Pseudomonas aeruginosa ATCC 10145; assay: Kill curve assay (MBC), planktonic cells; format: cell-based; conditions: for MBC: Pseudomonas aeruginosa, ATCC10145, minimal bactericidal concentration, planktonic cells, 24 h challenge, LB medium, read-out: MBC P. aeruginosa; for log reduction in the number of viable CFUs, P. aeruginosa: highest concentration tested 100 μM, 24 h; for B-SI (Bacterial Selectivity Index), P. aeruginosa: ratio of IC50 of normal hTERT-RPE-1 to MBC of P. aeruginosa, first value of the cell
Protocol: as §3

[7] = system: Staphylococcus aureus ATCC 25923; assay: Kill curve assay (MBC), planktonic cells; format: cell-based; conditions: for MBC: minimal bactericidal concentration, planktonic cells, 24 h challenge, LB medium, read-out: MBC S. aureus; for B-SI (Bacterial Selectivity Index), S. aureus: ratio of IC50 of normal hTERT-RPE-1 to MBC of S. aureus, second value of the cell
Protocol: as §3

[8] = system: hTERT RPE-1 immortalized retinal pigment epithelial cell line; assay: MTT viability assay (cytotoxicity on normal cells); format: cell-based; conditions: hTERT-RPE1; MTT, 48 h of treatment, normal epithelial cells; read-out: IC50 hTERT-RPE-1
Protocol: as §1, §2

[9] = system: HCT116 cells; assay: Morphological assessment, phase contrast inverted microscope; format: cell-based; conditions: 0.1 µM (sub-inhibitory), 24 h
Protocol: HCT116 cells were seeded in 24 well culture plates with a cell density of 1 × 10^5 cells/well. After 24 h cells were incubated for 24 h with different concentration of the selected PMs, and observed under a phase contrast inverted microscope (Carl Zeiss) at 200× magnification, for morphological changes assessment.

[10] = system: HCT116 cells; assay: Acridine orange/ethidium bromide (AO/EB) staining; format: cell-based; conditions: for AO/EB fluorescence of treated HCT116 cells (type of cell death): treated at IC50 for 24 and 48 h
Text: Cells were immediately observed under a fluorescent microscopy (Carl Zeiss) at 630 × magnification.

[11] = system: P. aeruginosa; assay: MIC by absorbance at 600 nm after overnight challenge; format: cell-based; conditions: Pseudomonas aeruginosa, LB medium, absorbance 600 nm
Protocol: as §3

[12] = system: P. aeruginosa cells; assay: AO/EB double staining of bacterial cells; format: cell-based, Pseudomonas aeruginosa; conditions: 10 μM (sub-inhibitory), 24 h
Protocol: It is noteworthy to highlight that the main difference between PM-C and 5d relies only on the presence of the nitro group in the position R3 of the latter, which is likely responsible for its enhanced electronegativity and, therefore, better biological reactivity over PM-C.
Figure 3 Fluorescence micrographs of P. aeruginosa cells treated for 24 h with 100 μM of PM-C or 10 μM of PM 5d after AO/EB double staining. Control represents untreated cells. Green (AO) are viable cells, red (EB) dead cells, and orange vital cells with damaged membranes.

[13] = Staphylococcus aureus, ATCC25923

melting point [°C]	IC50 ([2]; Homo sapiens, MCF7, 48 h) [µM]	IC50 [2] [µM]	IC50 ([3]; Homo sapiens, HCT-116, 48 h) [µM]	IC50 [5] [µM]	Compound	MIC against Escherichia coli [1]	IC50 [3] [µM]	C-SI, mean value among the two cancer cell lines [5]	MBC [6] [µM]	log reduction in the number of viable CFUs, P. aeruginosa [6] [log]	B-SI (Bacterial Selectivity Index), P. aeruginosa [6]	MBC [7, 13] [µM]	MBC [7] [µM]	B-SI (Bacterial Selectivity Index), S. aureus [7]	IC50 [8] [µM]	C-SI (Cancer Selectivity Index), MCF 7 [2]	C-SI (Cancer Selectivity Index), HCT116 [3]	morphology of treated HCT116 cells [9]	AO/EB fluorescence of treated HCT116 cells (type of cell death) [10]	further results
					O=[N+]([O-])c1c([C@@H](O)c2cc(Cl)cc(Cl)c2O)[nH]c(Cl)c1Cl [PM-G]	more than 300 μM														
					COc1c(Cl)cc(Cl)cc1C(=O)c1cc(Cl)c(Cl)[nH]1 [PM-I]	more than 300 μM														
	1.22 ± 0.69	1.2 ± 0.7	1.3 ± 0.3	0.8 to 2.25	O=C(c1cc(Br)cc(Br)c1O)c1[nH]c(Br)c(Br)c1Br [PM 1, 3,4,5,3′,5′-Pentabromo-2-(2′-hydroxybenzoyl)pyrrole, reference compound]			46	> 100	2.2	> 0.6	5 (≈ 2.91 µg/mL)		11.5	57.7 ± 11.2	47.3	44.2	more fibroblastic and less clumped morphology	red fluorescence	
	2.25 ± 0.35	2.2 ± 0.3	1.9 ± 0.42	0.8 to 2.25	O=C(c1cc([N+](=O)[O-])c[nH]1)c1cc(Cl)cc(Cl)c1O [PM 5a, (3,5-Dichloro-2-hydroxyphenyl)(4-nitro-1H-pyrrol-2-yl)methanone]			32	> 100		> 0.7	60 (≈ 18.1 µg/mL)	60 (≈ 18.1 µg/mL)	1.1	65.8 ± 10.5	29.2	34.6	more fibroblastic and less clumped morphology	orange fluorescence	
180 to 182	28.8 ± 4.21	28.8 ± 4.2	18.7 ± 3.81	> 7	O=C(c1cc(Cl)c([N+](=O)[O-])[nH]1)c1cc(Cl)cc(Cl)c1O [PM 5b, (4-Chloro-5-nitro-1H-pyrrol-2-yl)(3,5-dichloro-2-hydroxyphenyl)methanone]		18.7 ± 3.8	2.5	> 100	2.7	> 0.6	20 (≈ 6.71 µg/mL)	20 (≈ 6.71 µg/mL)	2.8	55.4 ± 13.2	1.9	3			
					COc1c(Cl)cc(Cl)cc1[C@H](O)c1[nH]c(Cl)c(Cl)c1[N+](=O)[O-] [PM-H]	more than 300 μM														
179 to 180	17.2 ± 3.2	17.2 ± 3.2	11.1 ± 3.26	> 7	COc1c(Br)cc(Br)cc1C(=O)c1c(Br)c(Br)c(Br)n1C [PM 2, (3,5-Dibromo-2-methoxyphenyl)(3,4,5-tribromo-1-methyl-1H-pyrrol-2-yl)methanone]		11.1 ± 3.3	11	> 100		> 1.5	70 (≈ 42.7 µg/mL)		2.1	149 ± 41	8.6	13.4			
					COc1c(Cl)cc(Cl)cc1C(=O)c1[nH]c(Cl)c(Cl)c1Cl [PM-J]	more than 300 μM														

Compound	melting point [°C]	IC50 ([2]; Homo sapiens, MCF7, 48 h) [µM]	IC50 [2] [µM]	IC50 ([3]; Homo sapiens, HCT-116, 48 h) [µM]	IC50 [5] [µM]	MIC against Escherichia coli [1]	IC50 [3] [µM]	C-SI, mean value among the two cancer cell lines [5]	MBC [6] [µM]	log reduction in the number of viable CFUs, P. aeruginosa [6] [log]	B-SI (Bacterial Selectivity Index), P. aeruginosa [6]	MBC [7, 13] [µM]	MBC [7] [µM]	B-SI (Bacterial Selectivity Index), S. aureus [7]	IC50 [8] [µM]	C-SI (Cancer Selectivity Index), MCF 7 [2]	C-SI (Cancer Selectivity Index), HCT116 [3]	morphology of treated HCT116 cells [9]	AO/EB fluorescence of treated HCT116 cells (type of cell death) [10]	further results
O=C(c1cc(Br)c([N+](=O)[O-])[nH]1)c1cc(Cl)cc(Cl)c1O [PM 5c, (4-Bromo-5-nitro-1H-pyrrol-2-yl)(3,5-dichloro-2-hydroxyphenyl)methanone]	175 to 177	12 ± 2.85	12 ± 2.8	7.64 ± 1.88	> 7		7.6 ± 1.9	8	> 100	2.2	> 0.3	1 (≈ 0.38 µg/mL)	1 (≈ 0.38 µg/mL)	29.7	29.7 ± 5.7					MIC [4]: 0.5 µM (≈ 0.19 µg/mL); fold more active than the synthetic PM-1 (S. aureus) ([7]; fold versus PM-1): 5; times more active than PM-C (S. aureus MBC) ([7]; fold versus PM-C): 90; times less toxic than PM-C (bacterial SI) ([7]; from bacterial selectivity index, S. aureus): 30
O=C(c1cc(Cl)cc(Cl)c1O)c1[nH]c(Cl)c(Cl)c1[N+](=O)[O-] [PM 5d, (3,5-Dichloro-2-hydroxyphenyl)(4,5-dichloro-3-nitro-1H-pyrrol-2-yl)methanone]		1.57 ± 0.39	1.6 ± 0.4	1.56	0.8 to 2.25		1.6 ± 0.2	143	30 (≈ 11.1 µg/mL)		7.5	7.5 (≈ 2.77 µg/mL)		30	225 ± 22.7	143.4	143.3	more fibroblastic and less clumped morphology	orange fluorescence	MIC [4]: 2 µM (≈ 0.74 µg/mL); MIC [11]: > 20 µM; AO/EB staining colour of P. aeruginosa cells [12]: either orange (indicating that cell membranes were damaged due to the entrance of EB) or red (indicating not viable cells); late apoptosis by AO/EB staining, HCT116 ([10]; treated at IC50, after 48 h): reddish orange cells
